Reference: ChEMBL document CHEMBL2311263, “Dibenzosuberones as p38 mitogen-activated protein kinase inhibitors with low ATP competitiveness and outstanding whole blood activity” (J Med Chem, 2013)
pIC50: −log10 of the molar value. Calls of active or inactive are those of the source. The calls are words filed in the database; no cut-off is given here.

Experiments:
[1] = target: T1, Mitogen-activated protein kinase 14 (Homo sapiens, UniProt Q16539); test: Inhibition of p38alpha MAP kinase in whole blood (unknown origin) assessed as lipopolysaccharide-stimulated TNF-alpha release by ELISA
[2] = target: T1, Mitogen-activated protein kinase 14; test: Inhibition of p38alpha MAP kinase (unknown origin) by ELISA
[3] = target: Mitogen-activated protein kinase 11 (Homo sapiens) (UniProt Q15759); test: Inhibition of p38beta MAP kinase (unknown origin)
[4] = target: Casein kinase I isoform epsilon (Homo sapiens) (UniProt P49674); test: Inhibition of CSNK1E (unknown origin)
[5] = target: T1, Mitogen-activated protein kinase 14; test: Inhibition of p38alpha MAP kinase in whole blood (unknown origin) assessed as lipopolysaccharide-stimulated TNF-alpha release measuring residual activity at 10 uM by ELISA
[6] = target: T1, Mitogen-activated protein kinase 14; conditions: Blood, 1 uM

T1 sequence (Q16539 whole entry): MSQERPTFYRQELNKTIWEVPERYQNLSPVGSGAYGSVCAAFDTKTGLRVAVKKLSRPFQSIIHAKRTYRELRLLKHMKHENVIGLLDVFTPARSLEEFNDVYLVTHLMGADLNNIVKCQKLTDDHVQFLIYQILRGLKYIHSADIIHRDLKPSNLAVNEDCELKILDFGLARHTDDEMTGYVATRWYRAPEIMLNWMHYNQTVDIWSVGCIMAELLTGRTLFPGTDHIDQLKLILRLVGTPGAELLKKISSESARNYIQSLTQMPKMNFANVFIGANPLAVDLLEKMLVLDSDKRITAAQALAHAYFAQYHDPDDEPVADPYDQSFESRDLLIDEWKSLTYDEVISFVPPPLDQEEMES
Sequence of Mitogen-activated protein kinase 11 (Homo sapiens) (Q15759 whole entry, canonical isoform): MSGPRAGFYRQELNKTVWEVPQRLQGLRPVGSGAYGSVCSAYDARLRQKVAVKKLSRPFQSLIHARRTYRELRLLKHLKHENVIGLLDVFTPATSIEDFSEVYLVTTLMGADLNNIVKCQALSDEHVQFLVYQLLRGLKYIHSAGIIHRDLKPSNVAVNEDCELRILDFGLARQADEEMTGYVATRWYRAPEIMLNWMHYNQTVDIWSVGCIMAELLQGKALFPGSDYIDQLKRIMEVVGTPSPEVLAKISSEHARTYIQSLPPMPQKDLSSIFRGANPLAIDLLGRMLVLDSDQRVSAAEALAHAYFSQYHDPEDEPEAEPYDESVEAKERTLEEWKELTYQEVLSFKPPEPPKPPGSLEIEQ
Sequence of Casein kinase I isoform epsilon (Homo sapiens) (P49674 whole entry, looked up, canonical isoform): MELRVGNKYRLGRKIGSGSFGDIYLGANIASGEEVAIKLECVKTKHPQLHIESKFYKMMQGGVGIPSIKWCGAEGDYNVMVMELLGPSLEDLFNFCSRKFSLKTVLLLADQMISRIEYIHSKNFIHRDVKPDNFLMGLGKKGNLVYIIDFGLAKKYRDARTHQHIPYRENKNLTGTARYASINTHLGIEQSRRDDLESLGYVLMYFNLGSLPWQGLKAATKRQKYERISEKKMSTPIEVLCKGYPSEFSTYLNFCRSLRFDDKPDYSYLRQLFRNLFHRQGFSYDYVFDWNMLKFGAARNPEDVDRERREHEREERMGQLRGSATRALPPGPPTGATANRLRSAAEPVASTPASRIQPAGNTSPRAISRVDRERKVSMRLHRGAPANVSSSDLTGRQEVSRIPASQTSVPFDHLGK

pIC50 [1] | pIC50 [2] | SMILES | also measured
7.02 | 8.22 | CCOC(=O)CNC(=O)c1ccc2c(c1)C(=O)c1ccc(Nc3ccc(F)cc3F)cc1CC2 | 
7.43 | 8.52 | CNC(=O)c1ccc2c(c1)C(=O)c1ccc(Nc3ccc(F)cc3F)cc1CC2 | 
6.59 | 9.00 | O=C(Nc1cc(Nc2ccc3c(c2)CCc2ccc(OCCN4CCOCC4)cc2C3=O)ccc1F)c1ccccc1 | 
7.54 | 8.52 | O=C(NCCN1CCOCC1)c1ccc2c(c1)C(=O)c1ccc(Nc3ccc(F)cc3F)cc1CC2 | 
7.59 | 9.52 | O=C(Nc1cc(Nc2ccc3c(c2)CCc2ccc(OCCN4CCOCC4)cc2C3=O)ccc1F)c1ccsc1 | 
5.12 | 7.05 | C[C@@H](NC(=O)c1ccc2c(c1)C(=O)c1ccc(Nc3ccc(F)cc3F)cc1CC2)C1CCCCC1 | 
6.54 | 8.40 | O=C(Nc1cc(Nc2ccc3c(c2)CCc2ccccc2C3=O)c(F)cc1F)c1ccccc1 | 
7.44 | 8.70 | CSCCNC(=O)c1ccc2c(c1)C(=O)c1ccc(Nc3ccc(F)cc3F)cc1CC2 | 
7.57 | 8.00 | CN1CCN(CCNC(=O)c2ccc3c(c2)C(=O)c2ccc(Nc4ccc(F)cc4F)cc2CC3)CC1 | 
6.57 | 8.52 | CCOC(=O)c1ccc2c(c1)C(=O)c1ccc(Nc3ccc(F)cc3F)cc1CC2 | 
6.34 | 8.15 | COC(=O)[C@H](CC(C)C)NC(=O)c1ccc2c(c1)C(=O)c1ccc(Nc3ccc(F)cc3F)cc1CC2 | 
7.57 | 8.30 | O=C(NCCO)c1ccc2c(c1)C(=O)c1ccc(Nc3ccc(F)cc3F)cc1CC2 | 
7.02 | 9.15 | O=C(Nc1cc(Nc2ccc3c(c2)CCc2ccc(OCCN4CCOCC4)cc2C3=O)ccc1F)c1cccs1 | 
7.19 | 7.85 | CNC(=O)CC[C@H](NC(=O)c1ccc2c(c1)C(=O)c1ccc(Nc3ccc(F)cc3F)cc1CC2)C(=O)NC | 
7.74 | 8.30 | COC(=O)CC[C@H](NC(=O)c1ccc2c(c1)C(=O)c1ccc(Nc3ccc(F)cc3F)cc1CC2)C(=O)OC | 
5.05 | 8.70 | O=C(Nc1ccc(F)c(Nc2ccc3c(c2)CCc2ccc(OCCO)cc2C3=O)c1)c1ccccc1 | 
7.54 | 8.70 | O=C(NCC(O)CO)c1ccc2c(c1)C(=O)c1ccc(Nc3ccc(F)cc3F)cc1CC2 (configuration not stated) | inhibition [3]: Active
5.62 | 8.70 | O=C(Nc1cc(Nc2ccc3c(c2)CCc2ccc(OCCO)cc2C3=O)ccc1F)c1ccccc1 | 
7.77 | 8.05 | O=C(NC(CO)CO)c1ccc2c(c1)C(=O)c1ccc(Nc3ccc(F)cc3F)cc1CC2 | 
7.49 | 9.00 | Cc1cc(F)c(NC(=O)c2ccoc2)cc1Nc1ccc2c(c1)CCc1ccc(OCCN3CCOCC3)cc1C2=O | 
7.38 | 8.15 | O=C(Nc1cc(Nc2ccc3c(c2)CCc2ccc(OC[C@H](O)CO)cc2C3=O)ccc1F)c1cccs1 | 
6.96 | 9.00 | O=C(Nc1cc(Nc2ccc3c(c2)CCc2ccc(OCCN4CCOCC4)cc2C3=O)ccc1F)c1ccoc1 | 
6.66 | 9.00 | O=C(Nc1cc(Nc2ccc3c(c2)CCc2ccc(OCCN4CCOCC4)cc2C3=O)c(F)cc1F)c1ccccc1 | 

pIC50 [1] | pIC50 [2] | SMILES | also measured
5.39 | 7.68 | COc1ccc2c(c1)C(=O)c1ccc(Nc3ccc(F)c(NC(=O)c4ccccc4)c3)cc1CC2 | 
7.72 | 8.00 | CN1CCN(CCCNC(=O)c2ccc3c(c2)C(=O)c2ccc(Nc4ccc(F)cc4F)cc2CC3)CC1 | 
5.64 | 7.54 | CC(=O)Oc1ccc2c(c1)C(=O)c1ccc(Nc3ccc(F)cc3F)cc1CC2 | 
6.52 | 8.70 | CC1(C)OC[C@H](COc2ccc3c(c2)C(=O)c2ccc(Nc4ccc(F)c(NC(=O)c5cccs5)c4)cc2CC3)O1 | 
 |  | O=C(NCCN1CCOCC1)c1ccc2c(c1)C(=O)c1ccc(Nc3ccc(F)c(NC(=O)c4ccccc4)c3)cc1CC2 | inhibition [4]: Active; inhibition [3]: Active
6.66 | 8.10 | CCCOC(=O)c1ccc2c(c1)C(=O)c1ccc(Nc3ccc(F)cc3F)cc1CC2 | 
7.92 |  | O=C(Nc1cc(Nc2ccc3c(c2)CCc2ccc(OCCN4CCOCC4)cc2C3=O)c(F)cc1F)c1ccsc1 | 
6.31 | 7.96 | O=C(O)c1ccc2c(c1)C(=O)c1ccc(Nc3ccc(F)cc3F)cc1CC2 | 
7.30 | 8.52 | CS(=O)(=O)CCNC(=O)c1ccc2c(c1)C(=O)c1ccc(Nc3ccc(F)cc3F)cc1CC2 | 
 | 7.36 | O=C1c2ccc(Nc3ccc(F)cc3F)cc2CCc2ccc(C(=O)N3CCOCC3)cc21 | Activity [5]: 39%
7.08 | 8.70 | O=C(NCCF)c1ccc2c(c1)C(=O)c1ccc(Nc3ccc(F)cc3F)cc1CC2 | 
6.24 | 7.01 | Cc1cc(F)c(NC(=O)C2CCOC2)cc1Nc1ccc2c(c1)CCc1ccc(OCCN3CCOCC3)cc1C2=O (configuration not stated) | 
7.27 | 8.30 | COCCNC(=O)c1ccc2c(c1)C(=O)c1ccc(Nc3ccc(F)cc3F)cc1CC2 | 
6.80 | 8.70 | COC(=O)c1ccc2c(c1)C(=O)c1ccc(Nc3ccc(F)cc3F)cc1CC2 | 
6.68 | 8.70 | O=C(OCCO)c1ccc2c(c1)C(=O)c1ccc(Nc3ccc(F)cc3F)cc1CC2 | 
6.62 | 9.00 | O=C(OCCN1CCOCC1)c1ccc2c(c1)C(=O)c1ccc(Nc3ccc(F)cc3F)cc1CC2 | 
6.35 | 7.57 | CC1(C)OC[C@@H](COc2ccc3c(c2)C(=O)c2ccc(Nc4ccc(F)c(NC(=O)c5ccccc5)c4)cc2CC3)O1 | 
7.72 | 8.00 | NC(=O)c1ccc2c(c1)C(=O)c1ccc(Nc3ccc(F)cc3F)cc1CC2 | 
6.82 | 7.92 | O=C1c2ccc(Nc3cc(NC(=O)C4CCOC4)c(F)cc3F)cc2CCc2ccc(OCCN3CCOCC3)cc21 (configuration not stated) | 
7.74 | 8.52 | CN(C)CCNC(=O)c1ccc2c(c1)C(=O)c1ccc(Nc3ccc(F)cc3F)cc1CC2 | 
 | 7.03 | CC(C)C[C@H](NC(=O)c1ccc2c(c1)C(=O)c1ccc(Nc3ccc(F)cc3F)cc1CC2)C(=O)O | inhibition [6]: inactive
7.19 | 8.52 | O=C(NCCCl)c1ccc2c(c1)C(=O)c1ccc(Nc3ccc(F)cc3F)cc1CC2 | 
5.82 | 7.70 | O=C1c2ccc(Nc3ccc(F)c(NC(=O)C4CCOC4)c3)cc2CCc2ccc(OCCO)cc21 (configuration not stated) | 
